Data reported in patent US20090246293A1 (priority 2008, published 2009).
Where two headings read alike, the source gives them in different places.

Legend:
Format in all cases: in vivo
[1] = tested on: Phytophthora infestans (PHYTIN); conditions: for % disease at 500 ppm of substance alone PHYTIN: substance alone 500 ppm, untreated check 95
[2] = tested on: Pseudoperonospora cubensis (PSPECU); assay: Droplet application on cucumber leaf, growth chamber (Examples 5a-d); conditions: for % disease at 500 ppm of substance alone: substance alone 500 ppm, untreated check 91%; for % disease at 1000 ppm of substance alone: substance alone 1000 ppm; for % disease at 100 ppm of substance alone: substance alone 100 ppm
Protocol: Examples 5a through 5d were conducted in growth chambers on cucumber plants. Cucumbers (Cucumis sativus cv Bush Pickle Hybrid #901261) were grown from seed in 5 cm by 5 cm pots containing MetroMix™ growth medium (Scotts, Marysville, Ohio) and maintained in a glasshouse with supplementary light sources to provide a 14 hour photoperiod at 24-29° C. until the plants were in the 2-3 true leaf stage of growth and the oldest leaf was fully expanded.
For examples 5a through 5d, described below, samples of mancozeb formulated as Dithane DG NT were dissolved in water to form a ½×dilution series. Mancozeb rates were 400, 200, 100 and 50 ppm. Samples of various aldehydes, amino acids, carboxylic acids, amines and alcohols were dissolved in acetone and then mixed with aqueous solutions of mancozeb. Attractant rates in the dilute solutions were 100, 200, 500 or 1000 ppm, depending on the experiment.
Mixtures of attractant or attractant derivative plus mancozeb or mancozeb alone were applied to cucumber as a row of 5 or 7.5 ul droplets using a multi-channel pipetting device. Five droplets spaced 1 cm apart were placed along the mid-rib of the expanded cucumber leaf with the first droplet being positioned at least 1-cm from the leaf apex. Each treatment was replicated three or four times, depending on the experiment. Two to three hours after applying the treatments when droplets had dried, plants were inoculated with a suspension of sporangia of a Pseudoperonospora cubensis (PSPECU) and incubated as described in the methods for sprayed tests. When symptoms were well developed in untreated check plants, the experiment was assessed visually using a template 2 cm wide and 7 cm long with the long axis centered on the mid-rib of the treated leaf.
Reduction in percent disease was calculated by subtracting percent disease on plants receiving a mixture of mancozeb plus the specified test substance from percent disease on plants receiving mancozeb alone. The results for examples 5a-5d are shown below in Tables 7-10; the reduction in percent disease was indicated as follows: […]

[3] = tested on: Plasmopara viticola (PLASVI); conditions: for % disease at 500 ppm of substance alone PLASVI: substance alone 500 ppm, untreated check 95
[4] = aldehyde derivative 100 ppm with mancozeb, Table 17
[5] = substance 200 ppm with mancozeb 50 ppm vs mancozeb alone, cucumber
[6] = substance 500 ppm with mancozeb 200 ppm vs mancozeb alone, Table 8
[7] = substance 1000 ppm with mancozeb 50 ppm vs mancozeb alone, cucumber
[8] = substance 500 ppm with mancozeb 6.25 ppm (Dithane DGNT), foliar spray, inoculated 2 to 3 hours after treatment
[9] = substance 500 ppm with mancozeb 25 ppm (Dithane DGNT), foliar spray, inoculated 2 to 3 hours after treatment
[10] = fungicide with Formulation I at 100 ppm, Table 19
[11] = substance 100 ppm with mancozeb 200 ppm vs mancozeb alone, Table 9
[12] = substance 100 ppm with mancozeb 200 ppm vs mancozeb alone, Table 10

CC(C)CC=NOCc1ccccc1 [Compound Y]
Reduction in percent disease PHYTIN [1, 4]: x (0-20% reduction in percent disease)

CC(C)CCC(=O)O [Isocaproic acid]
Reduction in % Disease [2, 5]: xxx (36-50% reduction in percent disease) | Reduction in % Disease [2, 6]: x (0-20% reduction in percent disease) | Reduction in % Disease [2, 7]: xxx (36-50% reduction in percent disease) | % disease at 500 ppm of substance alone [2]: 88% | % disease at 1000 ppm of substance alone ([2]; untreated check 100%): 100% | Reduction in percent disease PLASVI [3, 8]: xxx (36-50% reduction in percent disease) | % disease at 500 ppm of substance alone PLASVI [3]: 93% | Reduction in percent disease PHYTIN [1, 9]: xxx (36-50% reduction in percent disease) | % disease at 500 ppm of substance alone PHYTIN [1]: 95%

CC(C)C/C=N/N(C)c1ccccc1 [Compound AA]
Reduction in percent disease PHYTIN [1, 4]: x (0-20% reduction in percent disease)

CC(C)C/C=N/N1CCCCC1 [Compound Z]
Reduction in percent disease PHYTIN [1, 4]: xx (21-35% reduction in percent disease)

CC(C)CCO [Isoamyl alcohol]
Reduction in % Disease [2, 5]: xx (21-35% reduction in percent disease) | Reduction in % Disease [2, 7]: x (0-20% reduction in percent disease) | % disease at 1000 ppm of substance alone ([2]; untreated check 100%): 100%

N[C@@H](CC(=O)O)C(=O)O [Aspartic acid]
Reduction in % Disease [2, 5]: xx (21-35% reduction in percent disease) | Reduction in % Disease [2, 7]: xx (21-35% reduction in percent disease) | % disease at 1000 ppm of substance alone ([2]; untreated check 100%): 100%

CC(C)C/C=N/NC(=O)c1ccc(O)cc1 [Compound V]
Reduction in percent disease PHYTIN [1, 4]: xx (21-35% reduction in percent disease)

CON=C(C(=O)OC)c1ccccc1CON=C(C)c1cccc(C(F)(F)F)c1 [Trifloxystrobin, reference compound]
Reduction in percent disease PLASVI [3, 10]: x (0-20% reduction in percent disease) | Reduction in percent disease PHYTIN [1, 10]: x (0-20% reduction in percent disease)

C=CCON=CCC(C)C [Compound X]
Reduction in percent disease PHYTIN [1, 4]: xx (21-35% reduction in percent disease)

CC(C)=CC=O [3-methyl-2-butenaldehyde]
Reduction in % Disease [2, 11]: x (0-20% reduction in percent disease) | Reduction in % Disease [2, 6]: x (0-20% reduction in percent disease) | % disease at 100 ppm of substance alone ([2]; untreated check 92%, Table 9): 100% | % disease at 500 ppm of substance alone [2]: 81% | Reduction in percent disease PLASVI [3, 8]: xxx (36-50% reduction in percent disease) | % disease at 500 ppm of substance alone PLASVI [3]: 95% | Reduction in percent disease PHYTIN [1, 9]: x (0-20% reduction in percent disease) | % disease at 500 ppm of substance alone PHYTIN [1]: 95%

CC(=O)CC(C)C [4-methyl-2-pentanone]
Reduction in % Disease [2, 12]: x (0-20% reduction in percent disease) | % disease at 100 ppm of substance alone ([2]; untreated check 100%, Table 10): 93%

CCC(C=O)CC [2-ethylbutyraldehyde]
Reduction in % Disease [2, 11]: x (0-20% reduction in percent disease) | % disease at 100 ppm of substance alone ([2]; untreated check 92%, Table 9): 65%

O=[N+]([O-])c1cc(C(F)(F)F)c(Cl)c([N+](=O)[O-])c1Nc1ncc(C(F)(F)F)cc1Cl [Fluazinam, reference compound]
Reduction in percent disease PLASVI [3, 10]: xxx (36-50% reduction in percent disease) | Reduction in percent disease PHYTIN [1, 10]: xxx (36-50% reduction in percent disease)

CC(C)CC(=O)O [Isovaleric acid]
Reduction in % Disease [2, 5]: xx (21-35% reduction in percent disease) | Reduction in % Disease [2, 7]: xx (21-35% reduction in percent disease) | % disease at 1000 ppm of substance alone ([2]; untreated check 100%): 100%

CC(C)CCN [Isoamyl amine]
Reduction in % Disease [2, 5]: xxx (36-50% reduction in percent disease) | Reduction in % Disease [2, 7]: xxx (36-50% reduction in percent disease) | % disease at 1000 ppm of substance alone ([2]; untreated check 100%): 100%

CC(C)C/C=N/N(Cc1ccccc1)Cc1ccccc1 [Compound W]
Reduction in percent disease PHYTIN [1, 4]: xx (21-35% reduction in percent disease)

CC(C)C=O [Isobutyraldehyde]
Reduction in % Disease [2, 11]: x (0-20% reduction in percent disease) | % disease at 100 ppm of substance alone ([2]; untreated check 92%, Table 9): 97%

CCC(C)C(C)=O (centres unmarked) [3-methyl-2-pentanone]
Reduction in % Disease [2, 12]: x (0-20% reduction in percent disease) | % disease at 100 ppm of substance alone ([2]; untreated check 100%, Table 10): 100%
